Measured values as given in US20250255845A1, “USE OF INTERLEUKIN (IL)-17A INHIBITOR IN PREPARATION OF MEDICAMENT FOR TREATING INFLAMMATORY DISEASE” (Xiangnan University, priority 2024, published 2025).

Experiments:
p-STAT3 (Ser 727) = assay: Western blot of p-STAT3 (Ser 727) in LPS-induced RAW264.7 cells; type: cell-based, mouse
Procedure: (§1) RAW264.7 cell culture: mouse mononuclear macrophages (RAW264.7, ATCC) are cultured in a complete medium containing 10% fetal bovine serum (FBS), 1% double antibodies (penicillin and streptomycin), and 89% DMEM at 37° C. and 5% CO2. In this experiment, RAW264.7 cells from passages 3 to 8 are used for related test.
(§2) LPS (100 ng/ml) is added for stimulation, with or without Tan, and the cell supernatant is collected to detect the contents of NO, IL-23, IL-17A, TNF-α, and IL-6 in the cell supernatant. The cell lysate is collected and the protein expressions (STAT3, p-STAT3 (Ser727), and p-STAT3 (Tyr705)) are detected by Western blot. Total cell RNA is extracted and real-time fluorescence quantitative polymerase chain reaction (PCR) is conducted to detect the expression levels of IL-23, IL-17A, TNF-α, and IL-6 mRNA.
RAW264.7 cells in the logarithmic growth phase were inoculated in 100 mm culture dishes, and the cell density was adjusted to 1.6×10^6 cells/dish. After cultured for 24 h, different concentrations (5, 10, 20, 40 μM) of Tan were added to allow pretreatment for 2 h, and LPS (100 ng/ml) was added to allow incubation for 24 h. The original medium was removed, and the cells were washed 2 times with pre-cooled PBS buffer. Then, protein lysis buffer (300 μL per dish) was added for lysis on ice for 30 min. The supernatant was collected by centrifugation at 4° C., 12,000 rpm for 5 min, and the protein concentration was determined by BCA method. Next, 60 μg of total protein sample was loaded, separated by 10% Sodium Dodecyl Sulfate Polyacrylamide Gel Electrophoresis (SDS-PAGE) gel, and transferred to Polyvinylidene Fluoride (PVDF) membrane by electrophoresis. The membrane was blocked with 5% skim milk at room temperature for 1 h, and 3 mL of GAPDH, STAT3, p-STAT3 (Ser727), and p-STAT3 (Tyr705) antibodies were added and incubated overnight at 4°° C. […] Enhanced Chemiluminescence (ECL) color development was used for detection, and protein band quantification was performed using Image J software.

endothelial cells = details: CN101947215A; cited from earlier work
IL-17A mRNA = assay: Real-time fluorescence quantitative PCR, LPS-induced IL-17A mRNA in RAW264.7 cells; type: cell-based, mouse
Procedure: as §1, §2
RAW264.7 cells were inoculated into 6-well plate and the cell density was adjusted to 5.0×10^6 cells/well. After cultured for 24 h, the cells were stably adhered to the wall. The original medium was removed and different concentrations (5, 10, 20, 40 μM) of Tan were added to allow pretreatment for 1 h. LPS (100 ng/mL) was added and continued to be incubated for 24 h. The commercial TRlcom lysis buffer provided by Jianshi Biotech was added to extract total RNA from cells using the centrifugal column method and immediately reverse transcribed into c-DNA. The fluorescence intensity of each sample was detected according to the instructions of the real-time fluorescence quantitative PCR kit and specific primers (Table 1) (cycle conditions: enzyme activation 95° C. for 3 min, 1 cycle; denaturation 95° C. for 15 s, annealing/extension 60° C. for 1 min, 40 cycles). The mRNA expression level of each group was normalized with the GAPDH expression level, and the relative expression of mRNA was calculated using the 2^−ΔΔCt method.

[1] = system: IMQ-induced psoriasis mice; assay: H&E histological evaluation of dorsal skin of IMQ-induced psoriasis mice; type: in vivo, Balb/c mice; details: dose-dependent
Procedure: Balb/c mice (female, 6-8 weeks, 20+2 g), with certificate number [SCXK (Xiang) 2021-0002], were purchased from Hunan SJA Laboratory Animal (Changsha, China). All mice were housed in an specific pathogen free (SPF)-grade animal room with a 12 h light/12 h dark cycle, and experiments were started after the mice were acclimated for one week. Next, 96 mice were randomly divided into 12 groups (8 mice/group), including Control group, Control solvent (white vaseline) group, IMQ group, IMQ solvent (white vaseline) group, preventive administration of positive medicament Clo group (IMQ+Clo 55 mg), therapeutic administration of positive medicament group (IMQ+Clo (A) 55 mg), preventive administration of Tan low-dose group (IMQ+Tan 40 μg/cm^2), medium-dose group (IMQ+Tan160 μg/cm^2), and high-dose group (IMQ+Tan 640 μg/cm^2), and therapeutic administration of Tan low-dose group (IMQ+Tan (A) 40 μg/cm^2), medium-dose group (IMQ+Tan (A) 160 μg/cm^2), and high-dose group (IMQ+Tan (A) 640 μg/cm^2). After the mice were anesthetized, a 2 cm×3 cm area on the back was selected for hair removal. Modeling began 48 h after hair removal, and all modeling mice were applied with 65 mg (55 mg on the back and 5 mg on each ear) of IMQ cream every morning for 10 d. […]

## COc1ccc(-c2cc(=O)c3c(OC)c(OC)c(OC)c(OC)c3o2)cc1 [Tan, tangeretin]
p-STAT3 (Ser 727)
  suppression of p-STAT3 (Ser 727) relative to p-STAT3 (Tyr 705): more pronounced suppression
p-STAT3 (Ser 727); 40 μM
  suppression of STAT3 phosphorylation (Ser 727) compared with positive control Clo: comparable efficacy to the positive control
p-STAT3 (Ser 727); 5-40 μM, vs LPS group, P<0.001, dose-dependent
  expression of p-STAT3 (Ser 727) protein: inhibited
Endothelial cells
  proliferation of endothelial cells / angiogenesis: inhibit the proliferation of endothelial cells
IL-17A mRNA
  inhibitory effect on IL-17A (FIG. 5B): strong inhibitory effect
IL-17A mRNA; 40 μM
  inhibitory effect on IL-17A mRNA compared with positive control Clo: comparable to that of the positive control Clo
IL-17A mRNA; 5-40 μM, 24 h, vs LPS, P<0.001, dose-dependent
  relative expression level of IL-17A mRNA: significantly decreased
[1]; preventive Tan group vs IMQ group
  H&E histology of dorsal skin (epidermal thickness, hyperkeratosis, inflammatory infiltration): reduced epidermal tissue thickness, reduced hyperkeratosis, and slight inflammatory cellular infiltration
[1]; therapeutic Tan group, especially high-dose, vs IMQ group
  H&E histology of dorsal skin (epidermal thickness, hyperkeratosis, inflammatory infiltration): reduced epidermal tissue thickness, reduced hyperkeratosis, and slight inflammatory cellular infiltration
